Laboratory results: ChEMBL document CHEMBL5523693, “Exploration of the P1 residue in 3CL protease inhibitors leading to the discovery of a 2-tetrahydrofuran P1 replacement” (Bioorg Med Chem, 2024)
Where a SMILES comes first, the peptide text is derived from it. [ ]: non-standard residue; d: D form. The star is where a group is joined. Phe(4-F) = N[C@@H](Cc1ccc(F)cc1)C(=O)O; Cbz = O=C(OCc1ccccc1)*

Assays:
[1] = target: Replicase polyprotein 1ab (Severe acute respiratory syndrome coronavirus 2, UniProt P0DTD1); assay: Inhibition of SARS-CoV-2 3CL protease by FRET assay
SARS-CoV-2 = assay: microbe, parasite or virus in culture; conditions: Severe acute respiratory syndrome coronavirus 2, Vero, read-out: pEC50 (converted)
Description: Antiviral activity against SARS-CoV-2 infected in african green monkey Vero cells assessed as virus-induced cell death

[2] = Cytotoxicity against human MRC5 cells infected with […] inhibition of cell growth; type: toxicity, cell-based
[3] = target: Replicase polyprotein 1ab (Severe acute respiratory syndrome coronavirus 2) (UniProt P0DTD1); assay: Binding affinity to SARS-CoV-2 3CL protease assessed as monophasic dissociation rate by measuring half life by jump dilution assay
cells = conditions: Betacoronavirus 1, MRC5, read-out: pEC50 (converted)
Description: Antiviral activity against SARS-CoV-2 OC43 infected in human MRC5 cells assessed as inhibition of bacterial growth

[4] = Permeability of compound in MDCK cells; type: ADME, cell-based, Canis lupus familiaris; conditions: dog, read-out: permeability
[5] = target: Replicase polyprotein 1ab (Severe acute respiratory syndrome coronavirus 2) (UniProt P0DTD1); assay: Binding affinity to SARS-CoV-2 3CL protease assessed as biphasic dissociation rate by measuring half life by jump dilution assay

## CC(C)C[C@H](NC(=O)[C@H](Cc1ccc(F)cc1)NC(=O)OCc1ccccc1)C(=O)NC(C=O)CCF (mixture of isomers)
[1]
  IC50: 631 nM
SARS-CoV-2
  EC50: 1000 nM
[2]
  CC50: 2000 nM
[3]
  T1/2: < 12 min
cells
  EC50: > 50100 nM

## CC(C)C[C@H](NC(=O)[C@H](Cc1ccc(F)cc1)NC(=O)OCc1ccccc1)C(=O)NC(C=O)Cc1cccc(F)c1 (mixture of isomers)
[1]
  IC50: 631 nM
SARS-CoV-2
  EC50: 2510 nM
[2]
  CC50: 794 nM
[3]
  T1/2: < 12 min
cells
  EC50: 794 nM

## CC(C)C[C@H](NC(=O)[C@H](Cc1ccc(F)cc1)NC(=O)OCc1ccccc1)C(=O)NC(C=O)Cc1ccco1 (mixture of isomers)
[1]
  IC50: 126 nM
SARS-CoV-2
  EC50: 5010 nM
[3]
  T1/2: < 12 min

## CC(C)C[C@H](NC(=O)[C@H](Cc1ccc(F)cc1)NC(=O)OCc1ccccc1)C(=O)NC(C=O)CC1CCCO1 (mixture of isomers)
[1]
  IC50: 1.26 nM
[4]
  Papp: 9.56 ×10⁻⁶ cm/s
SARS-CoV-2
  EC50: 2510 nM
[2]
  CC50: 10000 nM
[5]
  T1/2: 660 min
cells
  EC50: 316 nM

## CC(C)C[C@H](NC(=O)[C@H](Cc1ccc(F)cc1)NC(=O)OCc1ccccc1)C(=O)NC(C=O)C[C@@H]1CCNC1=O (mixture of isomers)
[1]
  IC50: 0.398 nM
[4]
  Papp: 1.62 ×10⁻⁶ cm/s
SARS-CoV-2
  EC50: 1000 nM
[2]
  CC50: > 50100 nM
[5]
  T1/2: 840 min
cells
  EC50: 3160 nM

## CC(C)C[C@H](NC(=O)[C@H](Cc1ccc(F)cc1)NC(=O)OCc1ccccc1)C(=O)NC(C=O)Cc1cncs1 (mixture of isomers)
[1]
  IC50: > 1000 nM
[2]
  CC50: 2000 nM
cells
  EC50: > 50100 nM

## CC(C)C[C@H](NC(=O)[C@H](Cc1ccc(F)cc1)NC(=O)OCc1ccccc1)C(=O)N[C@H](/C=C1\CCOC1=O)C[C@H]1CCCO1
[1]
  IC50: 126 nM
SARS-CoV-2
  EC50: 15800 nM
[3]
  T1/2: 12 min

## CSCC[C@@H](C=O)NC(=O)[C@H](CC(C)C)NC(=O)[C@H](Cc1ccc(F)cc1)NC(=O)OCc1ccccc1 (Cbz-[Phe(4-F)]-Leu-Met-aldehyde)
[1]
  IC50: 6.31 nM
SARS-CoV-2
  EC50: 1260 nM
[2]
  CC50: 3980 nM
[3]
  T1/2: < 12 min
cells
  EC50: 1000 nM

## CC(C)C[C@H](NC(=O)[C@H](Cc1ccc(F)cc1)NC(=O)OCc1ccccc1)C(=O)N[C@H](/C=C1\CCOC1=O)C[C@@H]1CCNC1=O
[1]
  IC50: 1.58 nM
[5]
  T1/2: 468 min

## CC(C)C[C@H](NC(=O)[C@H](Cc1ccc(F)cc1)NC(=O)OCc1ccccc1)C(=O)NC(CC1CCCO1)C(=O)C(=O)NC(C)C (mixture of isomers)
[1]
  IC50: 200 nM
[3]
  T1/2: 12 min

## CC(C)C[C@H](NC(=O)[C@H](Cc1ccc(F)cc1)NC(=O)OCc1ccccc1)C(=O)NC(C=O)CC1CCCCO1 (mixture of isomers)
[1]
  IC50: 39.8 nM
SARS-CoV-2
  EC50: 2000 nM
[2]
  CC50: > 50100 nM
[3]
  T1/2: 18 min

## CC(C)C[C@H](NC(=O)[C@H](Cc1ccc(F)cc1)NC(=O)OCc1ccccc1)C(=O)NC(C=O)Cc1ccccn1 (mixture of isomers)
[1]
  IC50: 12.6 nM
[2]
  CC50: 10000 nM
[3]
  T1/2: 18 min
cells
  EC50: 1580 nM

## CC(C)C[C@H](NC(=O)[C@H](Cc1ccc(F)cc1)NC(=O)OCc1ccccc1)C(=O)NC(C=O)CC(F)(F)F (mixture of isomers)
[1]
  IC50: > 1000 nM
SARS-CoV-2
  EC50: 631 nM
[2]
  CC50: 1260 nM
cells
  EC50: > 1260 nM

## CC(C)C[C@H](NC(=O)[C@H](Cc1ccc(F)cc1)NC(=O)OCc1ccccc1)C(=O)NC(C=O)CC1CCCC1 (mixture of isomers)
[1]
  IC50: 79.4 nM
[2]
  CC50: 10000 nM
[3]
  T1/2: < 12 min
cells
  EC50: 1000 nM

## CC(C)C[C@H](NC(=O)[C@H](Cc1ccc(F)cc1)NC(=O)OCc1ccccc1)C(=O)NC(C=O)Cc1ccncc1 (mixture of isomers)
[1]
  IC50: > 1000 nM
SARS-CoV-2
  EC50: 631 nM
[2]
  CC50: 5010 nM
cells
  EC50: > 5010 nM

## CC(C)C[C@H](NC(=O)[C@H](Cc1ccc(F)cc1)NC(=O)OCc1ccccc1)C(=O)NC(C=O)Cc1ccc(F)cc1 (mixture of isomers)
[1]
  IC50: 794 nM
SARS-CoV-2
  EC50: 2000 nM
[2]
  CC50: 1260 nM
[3]
  T1/2: < 12 min
cells
  EC50: > 1260 nM

## CC(C)C[C@H](NC(=O)[C@H](Cc1ccc(F)cc1)NC(=O)OCc1ccccc1)C(=O)NC(C=O)Cc1c[nH]cn1 (mixture of isomers)
[1]
  IC50: 15.8 nM
SARS-CoV-2
  EC50: 3980 nM
[2]
  CC50: > 50100 nM
[3]
  T1/2: < 12 min
cells
  EC50: 25100 nM

## COCCC(C=O)NC(=O)[C@H](CC(C)C)NC(=O)[C@H](Cc1ccc(F)cc1)NC(=O)OCc1ccccc1 (mixture of isomers)
[1]
  IC50: 31.6 nM
SARS-CoV-2
  EC50: 1580 nM
[2]
  CC50: 10000 nM
[3]
  T1/2: < 12 min
cells
  EC50: 1260 nM

## CC(C)C[C@H](NC(=O)[C@H](Cc1ccc(F)cc1)NC(=O)OCc1ccccc1)C(=O)N[C@@H](/C=C1\CCOC1=O)C[C@H]1CCCO1
[1]
  IC50: > 1000 nM

## CC(C)C[C@H](NC(=O)[C@H](Cc1ccc(F)cc1)NC(=O)OCc1ccccc1)C(=O)NC(C=O)Cc1ccccc1F (mixture of isomers)
[1]
  IC50: 3.16 nM
[4]
  Papp: 5.27 ×10⁻⁶ cm/s
SARS-CoV-2
  EC50: 1580 nM
[2]
  CC50: 1260 nM
[5]
  T1/2: 414 min
cells
  EC50: 398 nM

## CC(C)C[C@H](NC(=O)[C@H](Cc1ccc(F)cc1)NC(=O)OCc1ccccc1)C(=O)NC(C=O)CC(F)F (mixture of isomers)
[1]
  IC50: 1000 nM
SARS-CoV-2
  EC50: 1000 nM
[2]
  CC50: 1580 nM
[3]
  T1/2: < 12 min
cells
  EC50: > 1580 nM

## CC(C)C[C@H](NC(=O)[C@H](Cc1ccc(F)cc1)NC(=O)OCc1ccccc1)C(=O)N[C@@H](C[C@@H]1CCNC1=O)C(=O)C(=O)NC(C)C
[1]
  IC50: 5.01 nM
  Ki: 5.01 nM
[3]
  T1/2: 18 min

## CC(C)C[C@H](NC(=O)[C@H](Cc1ccc(F)cc1)NC(=O)OCc1ccccc1)C(=O)N[C@@H](/C=C1\CCOC1=O)C[C@@H]1CCCO1
[1]
  IC50: > 1000 nM

## CC(C)C[C@H](NC(=O)[C@H](Cc1ccc(F)cc1)NC(=O)OCc1ccccc1)C(=O)N[C@H](C=O)CC[S+](C)[O-] (mixture of isomers)
[1]
  IC50: 7.94 nM
SARS-CoV-2
  EC50: 7940 nM
[2]
  CC50: > 50100 nM
[5]
  T1/2: 660 min
cells
  EC50: > 50100 nM

## CC(C)C[C@H](NC(=O)[C@H](Cc1ccc(F)cc1)NC(=O)OCc1ccccc1)C(=O)N[C@H](/C=C1\CCOC1=O)C[C@@H]1CCCO1
[1]
  IC50: 39.8 nM
SARS-CoV-2
  EC50: 15800 nM
[5]
  T1/2: 660 min

## CC(C)C[C@H](NC(=O)[C@H](Cc1ccc(F)cc1)NC(=O)OCc1ccccc1)C(=O)NC(C=O)Cc1cccnc1 (mixture of isomers)
[1]
  IC50: > 1000 nM
SARS-CoV-2
  EC50: 2000 nM
[2]
  CC50: 10000 nM
cells
  EC50: > 10000 nM

## CC(C)C[C@H](NC(=O)[C@H](Cc1ccc(F)cc1)NC(=O)OCc1ccccc1)C(=O)NC(/C=C1\CCOC1=O)CC1CCCO1 (mixture of isomers)
[1]
  IC50: 158 nM
[3]
  T1/2: 18 min
